Test results published in US20230310352A1, “NOVEL COMPOSITIONS AND METHODS FOR THE TREATMENT OF LUNG FIBROSIS” (LAURENT PHARMACEUTICALS INC., priority 2020, published 2023).
Entries after “also recorded” stand apart in the source; their conditions may differ.

Test system: Normal human lung fibroblast cells (NHLF cells, ATCC CRL-7000)
Assay: αSMA mRNA transcript by qRT-PCR after TGF-β1 exposure in NHLF
Type: cell-based
Details: TGF-β1 2 ng/mL + fenretinide 1, 2, 3, 4 μM, 3 days, 5% FBS
Protocol: Normal human lung fibroblast cells (NHLF cells, ATCC CRL-7000, EMEM media; 5% FBS) were incubated for 3 days at 37° C. and treated with TGF-β1 (2 ng/mL) or TGF-β1 (2 ng/mL)+Fenretinide (1, 2, 3, 4 μM). At the end of the 3 day-treatment period, media was removed using a vacuum pump and total ribonucleic acid (RNA) was isolated using the TriReagent protocol (BioShop) and cDNA was obtained by reverse transcription using the SUPERSCRIPT® VILO®. αSMA transcript levels were determined by quantitative real-time Polymerase Chain Reaction (qRT-PCR) using the Fast SyBR Master Mix and specific probes, and quantified following the ΔΔCT, normalized to PUM-1 expression as internal control. The experiment was performed in quadruplicate (4 wells/condition).

Structure (SMILES): CC1=C(/C=C/C(C)=C/C=C/C(C)=C/C(=O)Nc2ccc(O)cc2)C(C)(C)CCC1 [fenretinide, 4-hydroxyphenyl retinamide]
- induction of α-SMA fibrotic marker expression (mRNA, qRT-PCR): attenuates, in a dose-dependent manner; also recorded: dose-dependent attenuation
